Measured values taken from paper PMC11188305, “Reproductive and fetal toxicity studies of histamine H3 receptor antagonist DL76 used in mice to prevent maximal electroshock-induced seizure” (Frontiers in Pharmacology, 2024).

Tested on: C57/B6 mouse embryos
Assay: Reproductive studies: maternal, fetal and gross/visceral malformation observations after treatment on GD-8 or GD-13
Assay type: in vivo
Details: for Placental weight, IUGR −1SD / Placental weight, IUGR −2SD: fraction (percentage); for Fetal weight, IUGR −1SD / Fetal weight, IUGR −2SD: fraction of fetuses (percentage); for Number of female embryos / Number of male embryos: number (percentage); for Exomphalos / Eye open / Kinky tail / Left/right kidney hypo/descended / Mandible hypoplasia / Maxilla hypoplasia / Microtia/low set microtia / Undescended testis: number of embryos (percentage); for Live fetus/litter / Resorption/litter: parentheses contain percentages
Procedure: Reproductive studies were conducted in adult female mice, averaging 30 gm in weight and 6 weeks in age ([Padmanabhan et al., 2006]; [Bastaki et al., 2018]). Following successful mating, indicated by vaginal plug observation, the plug-positive day was considered gestation day 0 (GD-0). DL76 was administered at various doses (7.5 mg/kg, 15 mg/kg, 30 mg/kg, and 60 mg/kg) through single i.p. injections and three 15 mg/kg injections in 1 day to mouse groups on GD-8 and GD-13 (Tables 1, 2). The control group was injected with normal saline. Appropriate formation of different organs occurs in specific periods of the development of the mouse. These two periods were selected because GD-8 is known to be a critical period for the induction of neural tube defects, craniofacial malformations, and the development of other organs, whereas on GD-13, the retina and other parts are being formed, and most other organs have been formed. The number of implantations, fetal deaths, and resorptions was recorded. Fetal and placental weights were documented separately. After blotting dry, the fetuses were weighed and fixed in 95% ethanol. The reproductive toxicological effects of DL76 were assessed by observing gross and visceral malformations, following [Sterz and Lehmann (1985)], [Abdulrazzaq et al. (1997)], [Padmanabhan et al. (2003)], and [Padmanabhan et al. (2006)].
Deformities of the embryos were identified according to a modified method of [Sterz and Lehmann (1985)], [Abdulrazzaq et al. (1997)], and [Bass et al. (2020)]. Accordingly, the embryos were removed from the 95% ethanol, and the lower part of the abdomen was cut using a razor blade. All organs were checked for abnormalities with a stereo dissecting microscope, and finally, the organs were removed by using forceps.
Statistical analyses employed SPSS 26.0 (IBM Middle East, Dubai, UAE). Data were presented as means ± SEM. […] Fetal abnormality data were presented as counts and percentages. Fisher’s exact test compared the percentages of abnormalities between the control group (saline) and the different dose groups. All tests were two-tailed, and significance was set at p < 0.05.

With `CC(C)(C)c1ccc(OCCCN2CCCCC2)cc1` [DL76, 1-(3-(4-tert-butyl-phenoxy)propyl) piperidine] the “Fetal weight/Litter (g) (Mean ± SD)” value (7.5 mg/kg i.p. on GD-8) was 1.143 ± 0.107 g, the Fetuses/litter (7.5 mg/kg i.p. on GD-8) was 7.714 ± 1.890 and the “Placental weight/Litter (g) (mean ± SD)” value (7.5 mg/kg i.p. on GD-8) was 0.109 ± 0.11 g. For the same compound, the “Placental weight, IUGR −1SD” value (7.5 mg/kg i.p. on GD-8) was 0, the “Placental weight, IUGR −2SD” value (7.5 mg/kg i.p. on GD-8) was 0 and the “Fetal weight, IUGR −1SD” value (7.5 mg/kg i.p. on GD-8) was 0. For the same compound, the “Fetal weight, IUGR −2SD” value (7.5 mg/kg i.p. on GD-8) was 0, the “Number of female embryos” value (7.5 mg/kg i.p. on GD-8) was 19 (43.2) and the “Number of male embryos” value (7.5 mg/kg i.p. on GD-8) was 25 (56.8). The Exomphalos (7.5 mg/kg i.p. on GD-8) was 0, the Eye open (7.5 mg/kg i.p. on GD-8) was 2 (4.5) and the Kinky tail (7.5 mg/kg i.p. on GD-8) was 0. For the same compound, the Left/right kidney hypo/descended (7.5 mg/kg i.p. on GD-8) was 1 (2.3), the Mandible hypoplasia (7.5 mg/kg i.p. on GD-8) was 3 (6.8) and the Maxilla hypoplasia (7.5 mg/kg i.p. on GD-8) was 3 (6.8). The Microtia/low set microtia (7.5 mg/kg i.p. on GD-8) was 2 (4.5), the Undescended testis (7.5 mg/kg i.p. on GD-8) was 2 (4.5) and the Live fetus/litter (7.5 mg/kg i.p. on GD-8) was 6.289 (81.48). For the same compound, the Resorption/litter (7.5 mg/kg i.p. on GD-8) was 1.429 (18.51), the “Fetal weight Litter (g) (Mean ± SD)” value (7.5 mg/kg i.p. on GD-13) was 1.018 ± 0.103 g and the Fetuses/litter (7.5 mg/kg i.p. on GD-13) was 8.000 ± 1.291. The “Placental weight/Litter (g) (mean ± SD)” value (7.5 mg/kg i.p. on GD-13) was 0.105 ± 0.011 g, the “Placental weight, IUGR −2SD” value (7.5 mg/kg i.p. on GD-13) was 0 and the “Fetal weight, IUGR −2SD” value (7.5 mg/kg i.p. on GD-13) was 0. For the same compound, the “Number of female embryos” value (7.5 mg/kg i.p. on GD-13) was 27 (54.0), the “Number of male embryos” value (7.5 mg/kg i.p. on GD-13) was 23 (46.0) and the Exomphalos (7.5 mg/kg i.p. on GD-13) was 0. For the same compound, the Eye open (7.5 mg/kg i.p. on GD-13) was 3 (6.0), the Kinky tail (7.5 mg/kg i.p. on GD-13) was 0 and the Left/right kidney hypo/descended (7.5 mg/kg i.p. on GD-13) was 2 (4.0). For the same compound, the Mandible hypoplasia (7.5 mg/kg i.p. on GD-13) was 4 (8.0), the Microtia/low set microtia (7.5 mg/kg i.p. on GD-13) was 2 (4.0) and the Undescended testis (7.5 mg/kg i.p. on GD-13) was 1 (2.0). For the same compound, the Maxilla hypoplasia (7.5 mg/kg i.p. on GD-13, * p < 0.05 vs control) was 4 (8.0)*, the Resorption/litter (7.5 mg/kg i.p. on GD-13) was 0.857 (10.71) and the “Fetal weight/Litter (g) (Mean ± SD)” value (15 mg/kg i.p. on GD-8) was 0.993 ± 0.106 g. The Fetuses/litter (15 mg/kg i.p. on GD-8) was 7.167 ± 2.317, the “Placental weight/Litter (g) (mean ± SD)” value (15 mg/kg i.p. on GD-8) was 0.105 ± 0.009 g and the “Placental weight, IUGR −1SD” value (15 mg/kg i.p. on GD-8) was 0. The “Placental weight, IUGR −2SD” value (15 mg/kg i.p. on GD-8) was 0, the “Fetal weight, IUGR −1SD” value (15 mg/kg i.p. on GD-8) was 0 and the “Number of female embryos” value (15 mg/kg i.p. on GD-8) was 20 (52.6). The “Number of male embryos” value (15 mg/kg i.p. on GD-8) was 18 (47.4), the Exomphalos (15 mg/kg i.p. on GD-8) was 1 (2.6) and the Eye open (15 mg/kg i.p. on GD-8) was 3 (7.9). The Kinky tail (15 mg/kg i.p. on GD-8) was 0, the Left/right kidney hypo/descended (15 mg/kg i.p. on GD-8) was 2 (5.3) and the Mandible hypoplasia (15 mg/kg i.p. on GD-8) was 3 (7.9). The Maxilla hypoplasia (15 mg/kg i.p. on GD-8) was 1 (2.6), the Microtia/low set microtia (15 mg/kg i.p. on GD-8) was 1 (2.6) and the Undescended testis (15 mg/kg i.p. on GD-8) was 0. The Live fetus/litter (15 mg/kg i.p. on GD-8) was 6.338 (88.37), the Resorption/litter (15 mg/kg i.p. on GD-8) was 0.833 (11.62) and the “Fetal weight Litter (g) (Mean ± SD)” value (15 mg/kg i.p. on GD-13) was 0.998 ± 0.063 g. For the same compound, the Fetuses/litter (15 mg/kg i.p. on GD-13) was 7.571 ± 1.272, the “Placental weight/Litter (g) (mean ± SD)” value (15 mg/kg i.p. on GD-13) was 0.113 ± 0.015 g and the “Placental weight, IUGR −2SD” value (15 mg/kg i.p. on GD-13) was 0. For the same compound, the “Fetal weight, IUGR −2SD” value (15 mg/kg i.p. on GD-13) was 0, the “Number of female embryos” value (15 mg/kg i.p. on GD-13) was 18 (45.0) and the “Number of male embryos” value (15 mg/kg i.p. on GD-13) was 22 (55.0). For the same compound, the Exomphalos (15 mg/kg i.p. on GD-13) was 0, the Eye open (15 mg/kg i.p. on GD-13) was 2 (5.0) and the Kinky tail (15 mg/kg i.p. on GD-13) was 0. For the same compound, the Left/right kidney hypo/descended (15 mg/kg i.p. on GD-13) was 1 (2.5), the Mandible hypoplasia (15 mg/kg i.p. on GD-13) was 4 (10.0) and the Maxilla hypoplasia (15 mg/kg i.p. on GD-13) was 3 (7.5). For the same compound, the Microtia/low set microtia (15 mg/kg i.p. on GD-13) was 2 (5.0), the Undescended testis (15 mg/kg i.p. on GD-13) was 1 (2.5) and the Live fetus/litter (15 mg/kg i.p. on GD-13) was 5.714 (75.47). For the same compound, the Resorption/litter (15 mg/kg i.p. on GD-13) was 1.857 (24.53), the “Fetal weight/Litter (g) (Mean ± SD)” value (30 mg/kg i.p. on GD-8) was 1.004 ± 0.047 g and the Fetuses/litter (30 mg/kg i.p. on GD-8) was 8.429 ± 0.787. For the same compound, the “Placental weight/Litter (g) (mean ± SD)” value (30 mg/kg i.p. on GD-8) was 0.097 ± 0.019 g, the “Fetal weight, IUGR −2SD” value (30 mg/kg i.p. on GD-8) was 0 and the “Number of female embryos” value (30 mg/kg i.p. on GD-8) was 27 (52.9). The “Number of male embryos” value (30 mg/kg i.p. on GD-8) was 24 (47.1), the Exomphalos (30 mg/kg i.p. on GD-8) was 1 (2.0) and the Eye open (30 mg/kg i.p. on GD-8) was 2 (3.9). The Kinky tail (30 mg/kg i.p. on GD-8) was 1 (2.0), the Mandible hypoplasia (30 mg/kg i.p. on GD-8) was 3 (5.9) and the Microtia/low set microtia (30 mg/kg i.p. on GD-8) was 2 (3.9). The Undescended testis (30 mg/kg i.p. on GD-8) was 0, the Maxilla hypoplasia (30 mg/kg i.p. on GD-8, * p < 0.05 vs control) was 2 (3.9)* and the Live fetus/litter (30 mg/kg i.p. on GD-8) was 7.286 (86.44). The Resorption/litter (30 mg/kg i.p. on GD-8) was 1.143 (13.56), the “Fetal weight Litter (g) (Mean ± SD)” value (30 mg/kg i.p. on GD-13) was 1.069 ± 0.082 g and the Fetuses/litter (30 mg/kg i.p. on GD-13) was 7.000 ± 1.155. For the same compound, the “Placental weight/Litter (g) (mean ± SD)” value (30 mg/kg i.p. on GD-13) was 0.103 ± 0.006 g, the “Placental weight, IUGR −2SD” value (30 mg/kg i.p. on GD-13) was 0 and the “Fetal weight, IUGR −2SD” value (30 mg/kg i.p. on GD-13) was 0.
